Data published in ChEMBL document CHEMBL3244364, “5,11-dimethyl-2,9-bis(phenylacetyl)-5,11-diazatetracyclo[6.2.2.0(2,7).0(4,9)]dodecane, a potent, novel analgesic” (J Med Chem, 1977).
Activity calls are given as the source filed them.

Assays:
Rattus norvegicus [1] = assay: Analgesic activity in rat assessed as elevate pain reaction threshold to pressure applied to hind paw of to 50 mmHg at 5 mg/kg, iv; type: functional, organism-based; design: dose 5 mg/kg
Rattus norvegicus [2] = assay: Analgesic activity in sc dosed rat assessed as estimated dose to elevate pain reaction threshold to pressure applied to hind paw of to 50 mmHg; type: functional
Rattus norvegicus [3] = assay: Analgesic activity in rat assessed as ability to prolong reaction time at 3 mg/kg, sc by tail-flick assay; type: functional, organism-based; design: dose 3 mg/kg
Rattus norvegicus [4] = assay: Analgesic activity in rat assessed as ability to prolong reaction time at 3 mg/kg, sc by tail-flick assay in presence of 10 mg/kg, sc naloxone; type: functional, organism-based
Rattus norvegicus [5] = assay: Analgesic activity in rat assessed as elevate pain reaction threshold to pressure applied to hind paw of to 50 mmHg at 50 mg/kg, sc; type: functional, organism-based; design: dose 50 mg/kg
Rattus norvegicus [6] = assay: Analgesic activity in rat assessed as elevate pain reaction threshold to pressure applied to hind paw of to 50 mmHg at 10 mg/kg, iv; type: functional, organism-based; design: dose 10 mg/kg
Rattus norvegicus [7] = assay: Ratio of morphine ED50 to compound ED50 for analgesic activity in sc dosed rat; type: functional
Rattus norvegicus [8] = species: Rattus norvegicus; assay: Toxicity in rat assessed as catatonia; type: organism-based; conditions: in vivo
Rattus norvegicus [9] = species: Rattus norvegicus; assay: Toxicity in rat assessed as straub tail; type: organism-based; conditions: in vivo
Rattus norvegicus [10] = species: Rattus norvegicus; assay: Toxicity in rat assessed as exopthalmus; type: organism-based; conditions: in vivo
[11] = Rattus norvegicus, sc, read-out: ED50

CC(C)=CCN1CC[C@]2(C)c3cc(O)ccc3C[C@H]1[C@H]2C
Activity (Rattus norvegicus [1]): Active

CN1CC2C3CN(C)C4CC3(C(=O)Cc3ccccc3)C1CC24C(=O)Cc1ccccc1 (single isomer, unassigned; (+))
ED50 (Rattus norvegicus [2]): >80 mg/kg

CN1CC[C@]23c4c5ccc(O)c4O[C@H]2[C@@H](O)C=C[C@H]3[C@H]1C5 [MORPHINE]
ED50 (Rattus norvegicus [2]; [11]): 1.5 mg/kg

CN1CC2C3CN(C)C4CC3(C(=O)Cc3ccccc3)C1CC24C(=O)Cc1ccccc1 (racemic) [listing 1 of 2 here]
Activity (Rattus norvegicus [3]): Active
Activity (Rattus norvegicus [4]): inactive
Activity (Rattus norvegicus [5]): Active

C=CCN1CC2C3CN(CC=C)C4CC3(C(=O)Cc3ccccc3)C1CC24C(=O)Cc1ccccc1
ED50 (Rattus norvegicus [2]; [11]): > 81 mg/kg

C=CCN1CC2C3CN(C)C4CC3(C(=O)Cc3ccccc3)C1CC24C(=O)Cc1ccccc1 (configuration not stated)
ED50 (Rattus norvegicus [2]; [11]): > 80 mg/kg
Activity (Rattus norvegicus [6]): inactive

CN1CC2C3CN(C)C4CC3(C(=O)CC3CCCCC3)C1CC24C(=O)CC1CCCCC1
ED50 (Rattus norvegicus [2]; [11]): > 81 mg/kg

CN1CC2C3CN(C)C4CC3(C(=O)Cc3ccccc3)C1CC24C(=O)Cc1ccccc1 (single isomer, unassigned; (-))
ED50 (Rattus norvegicus [2]): 0.6 mg/kg
Ratio ED50 (Rattus norvegicus [7]): 3

CN1CC2C3CNC4CC3(C(=O)Cc3ccccc3)C1CC42C(=O)Cc1ccccc1 (configuration not stated)
ED50 (Rattus norvegicus [2]; [11]): 45 mg/kg

CCN1CC2C3CN(CC)C4CC3(C(=O)Cc3ccccc3)C1CC24C(=O)Cc1ccccc1
ED50 (Rattus norvegicus [2]; [11]): 41.1 mg/kg

CN1CC2C3CN(C)C4CC3(C(=O)Cc3ccccc3)C1CC24C(=O)Cc1ccccc1 (racemic) [listing 2 of 2 here]
ED50 (Rattus norvegicus [2]): 1 mg/kg
Ratio ED50 (Rattus norvegicus [7]): 1.5
Activity (Rattus norvegicus [8]): Toxic
Activity (Rattus norvegicus [9]): Toxic
Activity (Rattus norvegicus [10]): Toxic

CCN1CC2C3CN(C)C4CC3(C(=O)Cc3ccccc3)C1CC24C(=O)Cc1ccccc1 (configuration not stated)
ED50 (Rattus norvegicus [2]; [11]): 29.9 mg/kg

CN1CC2C3CN(C)C4CC3(C(=O)Cc3ccccc3)C1CC24C(=O)CC1CCCCC1 (configuration not stated)
ED50 (Rattus norvegicus [2]; [11]): 10.1 mg/kg

O=C(Cc1ccccc1)C12CC3NCC1C1CNC2CC31C(=O)Cc1ccccc1
ED50 (Rattus norvegicus [2]; [11]): > 81 mg/kg
